Reference: patent US9212140B2, “(5s,8s)-3-(4′-chlor-3′-fluor-4-methlybiphenyl-3-yl)-4-hydroxy-8-methoxy-1-azaspiro[4.5] dec-3-en-2-one (compound A) for treatment” (Bayer Intellectual Property GmbH, priority 2011, dated 2015)

Tests used:
[1] = tested on: BxPC3; experiment: Cell assay, tumour cell proliferation (CellTiter-Glo, 96 h); type: cell-based; details: Homo sapiens, BXPC-3; 96-hour incubation
Description: (§1) In accordance with the invention, the substances were tested in cell-based assays for the ability of the substances of inhibiting tumour cell proliferation after a 96-hour incubation with the substance. Cell viability was tested using the CellTiter-Glo® luminescent cell viability assay (Promega). The cells were sown at a density of 2000-5000 cells/well (depending on the cell line) in 100 μl growth medium on 96-well microtitre plates. For each cell line examined, cells were sown on a separate plate to determine the luminescence at t=0 hours and t=96 hours. After overnight incubation at 37° C., the luminescence values for the t=0 samples were determined. The dose plates for the t=96 hours points in time were treated with substances diluted with growth medium. The cells were then incubated at 37° C. for 96 hours, and the luminescence values for the t=96 hours sample were then determined/For data analysis, the t=0 values were subtracted from the t=96 hour values for treated and untreated samples. The differences in luminescence in percent between substance-treated samples and control values were used to determine the growth inhibition in percent.
(§2) The substances were tested in the following cell lines which represent the stated indications in an exemplary manner: […]

[2] = tested on: SNU16; experiment: as above; type: cell-based; details: Homo sapiens, SNU-16; 96-hour incubation
Description: as §1, §2

[3] = tested on: H460; experiment: as above; type: cell-based; details: Homo sapiens, NCI-H460; 96-hour incubation
Description: as §1, §2

[4] = tested on: BT-20; experiment: as above; type: cell-based; details: Homo sapiens, 96-hour incubation
Description: as §1, §2

[5] = tested on: LNCaP; experiment: as above; type: cell-based; details: Homo sapiens, 96-hour incubation
Description: as §1, §2

[6] = tested on: CAL-120; experiment: as above; type: cell-based; details: Homo sapiens, 96-hour incubation
Description: as §1, §2

[7] = tested on: DAN-G; experiment: as above; type: cell-based; details: 96-hour incubation
Description: as §1, §2

[8] = tested on: human MCF-7 cells; experiment: MCF-7 breast cancer xenograft model; type: in vivo, female nude mice (NMRI nu/nu); details: for T/C (based on tumour area) / T/C (based on tumour weight): 30 days, once per day
Description: Xenograft models in immunosuppressed mice were used to determine the antitumour activity in living organisms.
Various xenograft models in which the test substances were administered in their MTD and in lower doses were then used to determine the antitumour activity. In addition to various other models, use was made primarily of the breast cancer model with hormone-dependent human MCF-7 cells in female nude mice (NMRI-nude (nu/nu) mice, Taconic M&B A/S). To this end, on the day prior to the implantation of the tumour cells, a pellet for releasing oestrogen (17β-oestradiol 0.36 mg, release over 60 days) was administered subcutaneously to the mice. The next day, 2 million tumour cells (suspended in medium+Matrigel) 1:1, final 0.1 ml) were then injected subcutaneously into the side of each animal. When the tumours extended to an area of 20-25 mm^2, the mice were randomized into therapy groups and therapy was initiated. The therapy was then continued until an average tumour size of 120 mm^2 had been reached in the control group, which had only been given the vehicle of the test substance, or in one of the treatment groups, with tumour area and body weight being measured 2-3 times per week. At this point in time, the experiment was terminated in all groups and the excised tumours were weighed.
The T/C value was calculated as primary success parameter either using the effect on the tumour weight or using the effect on the tumour area: mean tumour weight/area in the treatment group divided by mean of the tumour weight/area in the vehicle group.
Comparative Example C.1 was subsequently administered to female nude mice (NMRI nu/nu) in the MCF-7 breast cancer xenograft model: • Dose: 7.5 mg/kg • Mode of administration: oral • Vehicle: PEG400/ethanol/Solutol HS 15(70/5/25, v/v/v) • Administration volume: 10 ml/kg • Scheme: 27 days, 2 times per day (2 qd) • Mice: 10
Compound A was subsequently administered to female nude mice (NMRI nu/nu) in the MCF-7 breast cancer xenograft model: • Dose: see Tab. 5 • Mode of administration: oral • Vehicle: PEG400/ethanol/Solutol HS 15(70/5/25, v/v/v) • Administration volume: 10 ml/kg • Scheme: 30 days, once per day (qd) • Mice per dose group: 10-13
For the statistical evaluation of the experiment, the non-parametric ANOVA test was used for the T/C values based on the tumour area, since there was no normal distribution of the measured values. All therapy groups were then compared to the vehicle group using Dunns Post test. The resulting p values are shown in the table (ns: not significant=p>0.05). Since there was a normal distribution of the T/C values based on tumour weight, the ANOVA test for parametric values was used for analysis. All therapy groups were then compared to the vehicle group using the Bonferroni Post test.

[9] = Maximum tolerated dose (MTD) determination, oral; type: in vivo, female nude mice (NMRI nu/nu); details: for MTD at 21 days: 21-day treatment with 1 administration per day
Description: To this end, initially the maximum tolerable dose (MTD) was determined using the following protocol:
Over a period of 1, 2 or 3 weeks, a defined dose of the test substance was administered orally to female nude mice (NMRI-nude (nu/nu) mice, Taconic M&B A/S), and the mice were observed daily for mortality and body weight. The MTD was defined as the highest dose which could be administered without any animal dying during the treatment phase and the 7-day additional observation phase, and without any body weight loss of more than 10% compared to the initial weight.
Comparative Example C.1 was administered to female nude mice (NMRI nu/nu): • Dose: see Tab. 3 • Mode of administration: oral • Vehicle: PEG400/ethanol/Solutol HS 15(70/5/25, v/v/v) • (Solutol HS15: polyoxyethylene ester of 12-hydroxystearic acid) • Administration volume: 10 ml/kg • Scheme: see Tab. 3
The treatment phase was followed by an observation phase of 7 days.
Compound A was administered to female nude mice (NMRI nu/nu): • Dose: see Tab. 4 • Mode of administration: oral • Vehicle: PEG400/ethanol/Solutol HS 15(70/5/25, v/v/v) • Administration volume: 10 ml/kg • Scheme: see Tab. 4

[10] = target: T1, ACC2 (Homo sapiens (Human), UniProt O00763); experiment: Human ACC2 enzyme assay B2 (ADP-Glo); type: biochemical; details: read-out: ACC 2 (=B2) IC50
Target sequence in this assay (O00763 27-2458 limits assumed): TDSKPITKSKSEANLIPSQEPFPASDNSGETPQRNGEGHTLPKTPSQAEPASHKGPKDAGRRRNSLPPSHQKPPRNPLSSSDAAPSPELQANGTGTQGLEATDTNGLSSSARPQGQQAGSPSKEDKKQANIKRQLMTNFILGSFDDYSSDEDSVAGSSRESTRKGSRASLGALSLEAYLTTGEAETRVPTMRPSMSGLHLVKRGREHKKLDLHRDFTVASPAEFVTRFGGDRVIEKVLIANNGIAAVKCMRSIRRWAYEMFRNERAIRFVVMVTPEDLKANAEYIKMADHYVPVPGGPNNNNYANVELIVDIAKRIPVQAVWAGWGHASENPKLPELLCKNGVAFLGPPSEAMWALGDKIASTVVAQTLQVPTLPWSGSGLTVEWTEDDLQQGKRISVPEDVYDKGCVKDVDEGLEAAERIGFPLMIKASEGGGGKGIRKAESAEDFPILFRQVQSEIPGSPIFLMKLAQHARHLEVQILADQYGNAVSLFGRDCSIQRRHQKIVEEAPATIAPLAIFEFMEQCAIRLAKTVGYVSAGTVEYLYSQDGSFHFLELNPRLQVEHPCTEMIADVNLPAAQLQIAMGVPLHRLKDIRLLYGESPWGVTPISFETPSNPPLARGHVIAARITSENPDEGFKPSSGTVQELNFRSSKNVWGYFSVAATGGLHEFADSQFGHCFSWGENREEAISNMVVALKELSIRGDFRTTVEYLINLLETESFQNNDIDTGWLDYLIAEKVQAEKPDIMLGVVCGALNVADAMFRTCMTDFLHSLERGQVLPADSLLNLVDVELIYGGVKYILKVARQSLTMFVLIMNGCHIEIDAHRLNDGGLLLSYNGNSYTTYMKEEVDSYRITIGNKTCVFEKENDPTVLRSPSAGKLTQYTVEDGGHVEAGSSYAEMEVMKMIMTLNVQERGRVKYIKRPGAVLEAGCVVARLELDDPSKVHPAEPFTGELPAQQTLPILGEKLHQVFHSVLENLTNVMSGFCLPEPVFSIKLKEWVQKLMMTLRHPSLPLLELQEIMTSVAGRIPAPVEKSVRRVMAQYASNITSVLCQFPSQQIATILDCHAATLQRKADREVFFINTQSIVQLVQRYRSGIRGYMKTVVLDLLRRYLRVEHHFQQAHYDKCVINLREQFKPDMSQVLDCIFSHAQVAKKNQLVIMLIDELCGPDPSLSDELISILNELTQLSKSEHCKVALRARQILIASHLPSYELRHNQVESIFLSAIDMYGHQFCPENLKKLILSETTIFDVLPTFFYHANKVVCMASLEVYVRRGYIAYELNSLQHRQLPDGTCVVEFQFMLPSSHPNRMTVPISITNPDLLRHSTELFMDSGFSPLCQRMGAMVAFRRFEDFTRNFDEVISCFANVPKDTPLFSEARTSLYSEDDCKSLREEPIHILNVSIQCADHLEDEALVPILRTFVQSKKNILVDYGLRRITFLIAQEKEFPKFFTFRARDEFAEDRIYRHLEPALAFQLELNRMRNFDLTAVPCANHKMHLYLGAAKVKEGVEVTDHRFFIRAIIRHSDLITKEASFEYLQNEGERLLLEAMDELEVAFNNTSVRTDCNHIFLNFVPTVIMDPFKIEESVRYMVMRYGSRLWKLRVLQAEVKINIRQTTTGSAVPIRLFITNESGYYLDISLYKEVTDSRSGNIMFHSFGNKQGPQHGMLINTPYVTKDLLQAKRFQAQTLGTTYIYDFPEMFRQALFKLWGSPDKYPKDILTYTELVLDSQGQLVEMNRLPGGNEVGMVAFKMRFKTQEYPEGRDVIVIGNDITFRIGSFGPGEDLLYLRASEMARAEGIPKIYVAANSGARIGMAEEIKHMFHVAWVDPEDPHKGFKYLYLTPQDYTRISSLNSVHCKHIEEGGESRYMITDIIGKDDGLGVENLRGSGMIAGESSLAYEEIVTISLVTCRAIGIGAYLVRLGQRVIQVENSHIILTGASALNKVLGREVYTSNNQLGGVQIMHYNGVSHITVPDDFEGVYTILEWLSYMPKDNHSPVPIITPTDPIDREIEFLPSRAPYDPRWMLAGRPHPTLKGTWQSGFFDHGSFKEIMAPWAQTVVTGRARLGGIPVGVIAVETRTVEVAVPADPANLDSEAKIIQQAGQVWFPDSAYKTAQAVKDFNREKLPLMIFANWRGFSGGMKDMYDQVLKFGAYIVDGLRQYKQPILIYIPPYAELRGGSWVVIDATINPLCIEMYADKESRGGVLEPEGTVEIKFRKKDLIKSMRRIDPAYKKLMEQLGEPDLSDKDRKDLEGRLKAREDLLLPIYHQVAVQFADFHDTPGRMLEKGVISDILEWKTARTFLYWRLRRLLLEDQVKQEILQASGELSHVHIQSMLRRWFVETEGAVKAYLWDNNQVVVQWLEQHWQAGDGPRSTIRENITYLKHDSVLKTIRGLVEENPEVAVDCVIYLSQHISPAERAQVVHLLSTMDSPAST
Description: Essentially, the enzyme activity is measured by quantifying the adenosine diphosphate (ADP) formed as a byproduct of the enzyme reactions using the ADP-Glo™ detection system from Promega. In this test, initially the adenosine triphosphate (ATP) not consumed in the enzyme reaction is converted quantitatively with an adenylate cyclase (“ADP-GLO reagent”) into cAMP, the adenylate cyclase is then stopped and (“kinase detection reagent”) the ADP formed is subsequently converted into ATP, which is converted in a luciferase-based reaction into a glow luminescence signal.
Typical concentrations were in the range of 2 ng/μl. […] The amount of light emitted was taken as a measure for the amount of ADP formed and thus for the enzyme activity of the hACC2.

[11] = target: T1, ACC2; experiment: Human ACC2 enzyme assay A2 (HTRF ADP immunoassay); type: biochemical; details: read-out: ACC 2 (=A2) IC50
Source text: The ACC2 inhibition data were obtained using two different assays (A2 and B2)
Target sequence in this assay (O00763 39-2458 limits assumed): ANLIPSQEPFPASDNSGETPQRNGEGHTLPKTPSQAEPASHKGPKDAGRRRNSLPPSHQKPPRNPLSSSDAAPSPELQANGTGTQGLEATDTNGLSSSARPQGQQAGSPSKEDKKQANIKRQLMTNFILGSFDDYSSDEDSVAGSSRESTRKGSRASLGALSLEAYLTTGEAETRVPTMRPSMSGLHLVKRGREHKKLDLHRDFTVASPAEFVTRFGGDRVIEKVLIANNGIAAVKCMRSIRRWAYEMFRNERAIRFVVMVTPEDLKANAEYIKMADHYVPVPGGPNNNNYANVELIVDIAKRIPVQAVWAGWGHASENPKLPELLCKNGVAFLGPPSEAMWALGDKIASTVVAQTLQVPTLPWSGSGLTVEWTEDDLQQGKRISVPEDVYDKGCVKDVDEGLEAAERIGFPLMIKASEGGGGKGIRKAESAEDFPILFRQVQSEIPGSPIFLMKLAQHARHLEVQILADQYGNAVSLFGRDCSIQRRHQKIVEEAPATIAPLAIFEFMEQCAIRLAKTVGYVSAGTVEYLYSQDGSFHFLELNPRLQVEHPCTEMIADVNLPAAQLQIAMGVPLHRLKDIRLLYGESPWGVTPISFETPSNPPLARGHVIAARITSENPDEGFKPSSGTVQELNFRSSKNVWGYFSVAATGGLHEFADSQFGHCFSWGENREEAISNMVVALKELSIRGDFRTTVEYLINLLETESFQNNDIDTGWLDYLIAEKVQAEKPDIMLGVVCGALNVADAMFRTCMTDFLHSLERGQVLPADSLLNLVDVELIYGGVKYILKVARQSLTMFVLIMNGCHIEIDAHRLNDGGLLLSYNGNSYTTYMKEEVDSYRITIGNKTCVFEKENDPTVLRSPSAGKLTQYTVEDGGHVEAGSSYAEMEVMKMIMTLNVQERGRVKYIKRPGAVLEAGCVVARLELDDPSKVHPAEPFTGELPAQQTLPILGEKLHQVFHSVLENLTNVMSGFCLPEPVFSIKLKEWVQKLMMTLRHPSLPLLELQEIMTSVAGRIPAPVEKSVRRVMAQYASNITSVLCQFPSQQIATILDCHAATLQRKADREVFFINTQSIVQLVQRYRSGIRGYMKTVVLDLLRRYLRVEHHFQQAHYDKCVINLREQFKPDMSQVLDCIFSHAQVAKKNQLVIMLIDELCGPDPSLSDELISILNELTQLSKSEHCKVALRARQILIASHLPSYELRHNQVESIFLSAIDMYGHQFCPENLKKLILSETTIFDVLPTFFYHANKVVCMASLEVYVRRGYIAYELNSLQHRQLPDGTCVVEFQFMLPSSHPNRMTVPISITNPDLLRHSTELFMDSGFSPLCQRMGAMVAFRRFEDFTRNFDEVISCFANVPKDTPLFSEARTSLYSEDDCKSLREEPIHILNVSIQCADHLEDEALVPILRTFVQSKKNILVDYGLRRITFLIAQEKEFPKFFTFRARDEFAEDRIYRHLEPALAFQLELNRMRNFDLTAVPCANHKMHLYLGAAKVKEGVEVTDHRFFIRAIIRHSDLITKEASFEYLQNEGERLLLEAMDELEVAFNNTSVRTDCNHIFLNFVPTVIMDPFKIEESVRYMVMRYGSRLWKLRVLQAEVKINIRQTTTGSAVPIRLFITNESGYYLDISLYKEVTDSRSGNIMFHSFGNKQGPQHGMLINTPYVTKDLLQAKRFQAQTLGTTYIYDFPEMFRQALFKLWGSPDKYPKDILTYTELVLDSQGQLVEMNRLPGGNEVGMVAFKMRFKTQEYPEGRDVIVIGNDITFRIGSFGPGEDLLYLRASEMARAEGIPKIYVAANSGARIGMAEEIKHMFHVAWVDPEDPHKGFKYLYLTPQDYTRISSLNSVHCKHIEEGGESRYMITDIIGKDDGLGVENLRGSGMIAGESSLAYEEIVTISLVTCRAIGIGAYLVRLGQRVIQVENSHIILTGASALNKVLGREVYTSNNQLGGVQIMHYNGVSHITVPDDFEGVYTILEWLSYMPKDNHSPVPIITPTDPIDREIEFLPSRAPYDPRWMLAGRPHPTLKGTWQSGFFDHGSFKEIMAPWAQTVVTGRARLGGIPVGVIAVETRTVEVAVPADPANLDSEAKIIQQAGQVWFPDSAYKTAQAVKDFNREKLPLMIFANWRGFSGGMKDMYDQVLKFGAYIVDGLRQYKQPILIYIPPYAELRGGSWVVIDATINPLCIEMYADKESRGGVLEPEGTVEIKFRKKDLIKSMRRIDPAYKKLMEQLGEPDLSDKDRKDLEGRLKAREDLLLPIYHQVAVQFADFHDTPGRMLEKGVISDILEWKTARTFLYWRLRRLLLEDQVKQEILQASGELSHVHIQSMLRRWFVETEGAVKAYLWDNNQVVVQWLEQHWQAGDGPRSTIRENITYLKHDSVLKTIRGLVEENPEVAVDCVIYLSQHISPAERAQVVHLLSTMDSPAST

[12] = 7.5 mg/kg oral 2 qd, up to day 37 of the experiment

For CO[C@H]1CC[C@]2(CC1)NC(=O)C(c1cc(-c3ccc(Cl)c(F)c3)ccc1C)=C2O [Compound A, (5s,8s)-3-(4′-chloro-3′-fluoro-4-methylbiphenyl-3-yl)-4-hydroxy-8-methoxy-1-azaspiro[4.5]dec-3-en-2-one], the IC50 [1] was 165 nM, the IC50 [2] was 164 nM and the IC50 [3] was 201 nM. For the same compound, the IC50 [4] was 187 nM, the IC50 [5] was 334 nM and the IC50 [6] was 266 nM. The IC50 [7] was 184 nM, the “T/C (based on tumour area)” value ([8]; 20 mg/kg oral) was 0.56 (ns) and the “T/C (based on tumour weight)” value ([8]; 20 mg/kg oral) was 0.42 (p = 0.003). For the same compound, the “T/C (based on tumour area)” value ([8]; 25 mg/kg oral) was 0.51 (p < 0.05), the “T/C (based on tumour weight)” value ([8]; 25 mg/kg oral) was 0.37 (p < 0.001) and the “T/C (based on tumour area)” value ([8]; 30 mg/kg oral) was 0.49 (p < 0.05). For the same compound, the “T/C (based on tumour weight)” value ([8]; 30 mg/kg oral) was 0.35 (p < 0.001), the “T/C (based on tumour area)” value ([8]; 35 mg/kg oral) was 0.44 (p < 0.05) and the “T/C (based on tumour weight)” value ([8]; 35 mg/kg oral) was 0.31 (p < 0.001). The “antitumoral efficacy (in words)” value ([8]; MCF-7 xenograft, summary statement) was “biologically meaningful and significant antitumoral effects”, the Deaths ([9]; 20 mg/kg oral, 21 days, once per day (Table 4)) was 0 of 5 and the Deaths ([9]; 30 mg/kg oral, 21 days, once per day (Table 4)) was 0 of 5. For the same compound, the Deaths ([9]; 40 mg/kg oral, 21 days, once per day (Table 4)) was 1 of 5, the Deaths ([9]; 50 mg/kg oral, 21 days, once per day (Table 4)) was 5 of 5 and the Deaths ([9]; 60 mg/kg oral, 21 days, once per day (Table 4)) was 5 of 5. For the same compound, the MTD at 21 days ([9]; female, NMRI nu/nu (nude), mouse, in vivo, po) was under 40 mg/kg.

Work on COC1CCC2(C=C(c3cc(-c4ccc(Cl)c(Cl)c4)ccc3C)C(=O)N2)CC1 (stereo not shown) [Comparative Example C.2] yielded an IC50 [10] of 2610 nM and an IC50 [11] of 1410 nM.

With CO[C@H]1CC[C@]2(CC1)NC(=O)C(c1cc(-c3ccc(Cl)cc3)ccc1C)=C2O [Comparative Example C.1, (5s,8s)-3-(4′-chloro-4-methylbiphenyl-3-yl)-4-hydroxy-8-methoxy-1-azaspiro[4.5]dec-3-en-2-one] the animals died [8, 12] was 1 of 10, the bodyweight loss [8, 12] was “low bodyweight loss” and the “T/C value based on tumour area” value ([8]; 7.5 mg/kg oral, 27 days, 2 times per day (2 qd)) was 0.86. The Deaths ([8]; continued with 10 mg/kg 2 qd up to day 43) was 1 of 4, the Deaths ([8]; continued with 12.5 mg/kg 2 qd up to day 43) was 4 of 5 and the Deaths ([9]; 10 mg/kg oral, 14 days, 2 times a day) was 1 of 3. The Deaths ([9]; 15 mg/kg oral, 21 days, once per day (Table 3)) was 1 of 5, the Deaths ([9]; 20 mg/kg oral, 14 days, 2 times a day) was 2 of 3 and the Deaths ([9]; 20 mg/kg oral, 21 days, once per day (Table 3)) was 1 of 5. The Deaths ([9]; 25 mg/kg oral, 21 days, once per day (Table 3)) was 1 of 5, the Deaths ([9]; 30 mg/kg oral, 14 days, 2 times a day) was 2 of 3 and the MTD at 14 days ([9]; female, NMRI nu/nu, mouse, in vivo, po, 14-day treatment with 2 administrations per day) was under 10 mg/kg. For the same compound, the MTD at 21 days ([9]; female, NMRI nu/nu, mouse, in vivo, po) was under 15 mg/kg.
